From the supplement of paper PMC10331698
± gives the standard deviation of the averaged measurements.

How the values were obtained:
Experiment in all cases: level (log10 ratio to DMSO vehicle control); higher = higher biomarker level / cell amount than vehicle control
Settings in all cases: in DMSO
[1] = compound: C=C(C)C(=O)OCC(F)(F)C(F)(F)C(F)(F)C(F)(F)C(F)(F)C(F)(F)C(F)(F)F
Protocol: (§1)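 BioMAP Diversity Plus panel of 12 human primary cell co-culture systems (3C, 4H, LPS, SAg, BT, BF4T, BE3C, CASM3C, HDF3CGF, KF3CT, MyoF, Mphg). Compounds were added 1 h before stimulation and left for 24 h (MyoF 48 h; BT 72 h for soluble read-outs or 6 d for IgG). Biomarkers were read by ELISA, cytotoxicity by SRB, PBMC viability and proliferation by Alamar Blue. Each well value was divided by the mean of 8 DMSO control wells on the same plate and log10 transformed; duplicate blinded samples were tested at 4 concentrations.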

[2] = compound: OCC(F)(F)C(F)(F)C(F)(F)F [1H,1H-Heptafluorobutanol]
Protocol: as §1

[3] = compound: O=S(=O)(O)C(F)(F)C(F)(F)C(F)(F)C(F)(F)F [Perfluorobutanesulfonic acid]
Protocol: as §1

[4] = compound: O=C(O)CCC(F)(F)C(F)(F)C(F)(F)F [3:3 Fluorotelomer carboxylic acid]
Protocol: as §1

[5] = compound: FC(F)(F)C(F)(F)C(F)(F)C(F)(F)C(F)(F)C(F)(F)C(F)(F)CCI [1-Iodo-1H,1H,2H,2H-perfluorononane]
Protocol: as §1

[6] = compound: O=P(O)(O)CCC(F)(F)C(F)(F)C(F)(F)C(F)(F)C(F)(F)C(F)(F)C(F)(F)C(F)(F)F [((Perfluorooctyl)ethyl)phosphonic acid]
Protocol: as §1

[7] = compound: C=CC(=O)OCCC(F)(F)C(F)(F)C(F)(F)C(F)(F)F [2-(Perfluorobutyl)ethyl acrylate]
Protocol: as §1

| Test System | level (log10) ([1]; 6700 nM) | level (log10) ([1]; 20000 nM) | level (log10) ([2]; 6700 nM) | level (log10) ([2]; 20000 nM) | level (log10) ([2]; 60000 nM) | level (log10) ([3]; 6700 nM) | level (log10) ([3]; 20000 nM) | level (log10) ([3]; 60000 nM) | level (log10) ([4]; 6700 nM) | level (log10) ([4]; 20000 nM) | level (log10) ([4]; 60000 nM) | level (log10) ([5]; 6700 nM) | level (log10) ([5]; 20000 nM) | level (log10) ([6]; 6700 nM) | level (log10) ([6]; 20000 nM) | level (log10) ([6]; 60000 nM) | level (log10) ([7]; 6700 nM) | level (log10) ([7]; 20000 nM) | level (log10) ([7]; 60000 nM) |
| --- | --- | --- | --- | --- | --- | --- | --- | --- | --- | --- | --- | --- | --- | --- | --- | --- | --- | --- | --- |
| lMphg:CCL2/MCP-1 | -0.009 ± 0.021 | 0.008 ± 0.02 | -0.01 ± 0.0042 | -0.0075 ± 0.015 | -0.0295 ± 0.012 | 0.0105 ± 0.0021 | 0.0105 ± 0.0078 | 0.0145 ± 0.025 | -0.012 ± 0.02 | -0.01 ± 0.018 | 0.017 ± 0.02 | -0.014 ± 0.0071 | 0.0385 ± 0.032 | -0.0325 ± 0.0092 | -0.059 ± 0.024 | -0.039 ± 0.04 | -0.0335 ± 0.0078 | -0.0445 ± 0.0078 | -0.012 ± 0.04 |
| lMphg:CCL3/MIP-1alpha | -0.032 ± 0.0028 | 0.007 ± 0.045 | 0.0015 ± 0.019 | -0.003 ± 0.037 | -0.0035 ± 0.0021 | -0.0305 ± 0.016 | -0.0395 ± 0.005 | -0.0135 ± 0.0092 | -0.0105 ± 0.047 | -0.027 ± 0.047 | 0.002 ± 0.02 | -0.001 | 0.045 ± 0.033 | -0.0425 ± 0.026 | -0.0475 ± 0.0021 | -0.039 ± 0.0085 | -0.0105 ± 0.0064 | -0.0115 ± 0.029 | 0.021 ± 0.013 |
| lMphg:CD40 | -0.0265 ± 0.0064 | -0.025 ± 0.0042 | 0.0045 ± 0.025 | -0.0125 ± 0.059 | -0.0105 ± 0.029 | -0.0015 ± 0.0064 | -0.0065 ± 0.0021 | 0.009 ± 0.0014 | -0.0195 ± 0.064 | -0.028 ± 0.067 | 0.0065 ± 0.018 | -0.0065 ± 0.00071 | -0.0225 ± 0.028 | -0.015 ± 0.017 | -0.065 ± 0.017 | -0.037 ± 0.021 | -0.002 | -0.0165 ± 0.0064 | -0.0255 ± 0.0064 |
| lMphg:CD62E/E-Selectin | -0.0215 ± 0.0021 | -0.021 ± 0.0042 | -0.0085 ± 0.021 | 0.001 ± 0.017 | 0 ± 0.045 | 0.0405 ± 0.0035 | 0.041 ± 0.044 | 0.0215 ± 0.046 | 0.014 ± 0.025 | 0.028 ± 0.023 | 0.0435 ± 0.023 | 0.016 ± 0.02 | 0.001 ± 0.0099 | 0.011 ± 0.0014 | 0.027 ± 0.0085 | 0.113 ± 0.018 | 0.01 ± 0.0071 | -0.006 ± 0.0099 | 0.001 ± 0.0042 |
| lMphg:CD69 | -0.0135 ± 0.018 | -0.004 ± 0.038 | -0.0555 ± 0.066 | -0.052 ± 0.098 | -0.0465 ± 0.066 | 0.0035 ± 0.005 | -0.0195 ± 0.005 | -0.0525 ± 0.043 | 0.013 ± 0.013 | 0.053 ± 0.047 | 0.035 ± 0.037 | -0.0025 ± 0.023 | -0.053 ± 0.076 | -0.0125 ± 0.013 | -0.0425 ± 0.04 | 0.0275 ± 0.043 | -0.0065 ± 0.016 | -0.006 ± 0.011 | -0.024 ± 0.0057 |
| lMphg:CD106/VCAM-1 | -0.0385 ± 0.0035 | -0.0535 ± 0.026 | -0.001 | 0.008 ± 0.0028 | 0.01 ± 0.0085 | -0.004 ± 0.025 | -0.013 ± 0.018 | -0.0195 ± 0.0078 | 0.002 ± 0.013 | 0.009 ± 0.0014 | 0.0045 ± 0.013 | -0.009 ± 0.04 | -0.039 ± 0.075 | -0.013 ± 0.016 | -0.0455 ± 0.018 | -0.055 ± 0.0014 | -0.009 ± 0.0099 | -0.0035 ± 0.028 | -0.0405 ± 0.037 |
| lMphg:CXCL8/IL-8 | -0.042 ± 0.021 | -0.0315 ± 0.047 | 0.003 ± 0.055 | 0.0295 ± 0.036 | 0.0415 ± 0.021 | 0.022 ± 0.0028 | 0.06 ± 0.0085 | 0.183 ± 0.0099 | -0.0215 ± 0.059 | -0.001 ± 0.051 | 0.025 ± 0.02 | 0.007 ± 0.013 | 0.0695 ± 0.0078 | -0.0105 ± 0.025 | 0.0115 ± 0.028 | 0.148 ± 0.084 | 0.013 ± 0.014 | 0.0045 ± 0.0021 | 0.0055 ± 0.0078 |
| lMphg:IL-1alpha | -0.0265 ± 0.029 | 0.005 ± 0.13 | 0.0275 ± 0.04 | 0.008 ± 0.018 | 0.015 ± 0.0014 | 0.0315 ± 0.016 | -0.0055 ± 0.056 | 0.034 ± 0.031 | -0.0005 ± 0.11 | 0 ± 0.057 | 0.028 ± 0.059 | -0.012 ± 0.014 | 0.055 ± 0.045 | -0.014 ± 0.0099 | -0.0245 ± 0.025 | 0.02 ± 0.0042 | -0.026 ± 0.028 | -0.033 ± 0.0028 | 0.0145 ± 0.04 |
| lMphg:M-CSF | -0.0185 ± 0.0035 | -0.0025 ± 0.033 | -0.005 ± 0.017 | 0.0045 ± 0.016 | 0.0125 ± 0.019 | 0.021 ± 0.028 | -0.0045 ± 0.074 | -0.0045 ± 0.07 | -0.021 ± 0.024 | -0.008 ± 0.0085 | -0.0115 ± 0.0021 | -0.023 ± 0.037 | -0.015 ± 0.0014 | -0.0235 ± 0.0064 | -0.039 ± 0.0057 | -0.0405 ± 0.0078 | -0.0155 ± 0.029 | -0.011 ± 0.028 | -0.001 ± 0.018 |
| lMphg:SRB | -0.012 ± 0.016 | -0.015 ± 0.016 | -0.0045 ± 0.0064 | -0.002 ± 0.018 | -0.005 ± 0.0014 | 0.002 ± 0.013 | -0.0155 ± 0.011 | -0.0155 ± 0.0064 | -0.0305 ± 0.026 | -0.0105 ± 0.021 | -0.013 ± 0.0042 | -0.002 ± 0.0071 | 0.0065 ± 0.005 | 0 ± 0.0071 | -0.0105 ± 0.0078 | -0.044 ± 0.0085 | 0.0085 ± 0.0078 | -0.0095 ± 0.0064 | -0.0155 ± 0.012 |
| lMphg:SRB-Mphg | 0.0095 ± 0.052 | 0.0365 ± 0.03 | 0.005 ± 0.0028 | -0.009 ± 0.0042 | 0.006 ± 0.0099 | 0.01 ± 0.018 | 0.0045 ± 0.015 | -0.0005 ± 0.012 | -0.019 ± 0.13 | -0.047 ± 0.1 | -0.048 ± 0.12 | 0.001 ± 0.03 | 0.001 ± 0.011 | 0.0005 ± 0.015 | -0.0055 ± 0.00071 | -0.0515 ± 0.022 | 0.012 ± 0.011 | 0.0075 ± 0.016 | -0.006 ± 0.021 |
| lMphg:sIL-10 | -0.0725 ± 0.016 | -0.121 ± 0.31 | -0.165 ± 0.033 | 0.032 ± 0.014 | -0.0565 ± 0.097 | 0.043 ± 0.099 | -0.0475 ± 0.032 | 0.0065 ± 0.049 | -0.049 ± 0.073 | -0.035 ± 0.076 | -0.087 ± 0.016 | -0.0685 ± 0.00071 | -0.072 ± 0.021 | -0.0215 ± 0.012 | -0.062 ± 0.017 | -0.263 ± 0.025 | -0.0435 ± 0.011 | -0.07 ± 0.021 | -0.0715 ± 0.054 |
